Measured values from ChEMBL document CHEMBL1156195, “Antimicrobial selaginellin derivatives from Selaginella pulvinata” (Bioorg Med Chem Lett, 2010).
≈ marks a conversion by molar mass, not a printed value. Calls of active or inactive are those of the source. No cut-off for these calls is given here.

Columns and labels:
[1] = system: Candida albicans; experiment: Antifungal activity against Candida albicans; type: functional, organism-based
[2] = system: Staphylococcus aureus; experiment: Antibacterial activity against Staphylococcus aureus; type: functional, organism-based

SMILES | IC50 [1] | IC50 [2] | MIC [2]
Clc1ccc(COC(Cn2ccnc2)c2ccc(Cl)cc2Cl)c(Cl)c1.O=[N+]([O-])O (centres undefined) [MICONAZOLE NITRATE] | < 1.2 µg/mL |  | 
CCOc1ccc(C(=C2C=CC(=O)C=C2)c2c(-c3ccc(O)cc3)ccc(CO)c2C#Cc2ccc(O)cc2)cc1 [SELAGINELLIN D] | 5.3 µg/mL (≈ 9.8 µM) | Not Active | inactive
